In US9242929B2, “Compounds as diacylglycerol acyltransferase inhibitors” (GlaxoSmithKline Intellectual Property (No.2) Limited, priority 2011, dated 2016):
pIC50: −log10 of the molar value.

biological target: T1, Human DGAT1 (Homo sapiens, UniProt O75907); assay: human DGAT1 fluorescence (CPM) assay, inhibition of CoA product formation; assay type: biochemical; details: human DGAT1 fluorescene (CPM) assay; microsomes from Sf9 insect cells; read-out: hDGAT IC50
T1 construct: made in house; host or cells: Sf9 insect cells (baculovirus), microsomes
T1 sequence (O75907 1-488): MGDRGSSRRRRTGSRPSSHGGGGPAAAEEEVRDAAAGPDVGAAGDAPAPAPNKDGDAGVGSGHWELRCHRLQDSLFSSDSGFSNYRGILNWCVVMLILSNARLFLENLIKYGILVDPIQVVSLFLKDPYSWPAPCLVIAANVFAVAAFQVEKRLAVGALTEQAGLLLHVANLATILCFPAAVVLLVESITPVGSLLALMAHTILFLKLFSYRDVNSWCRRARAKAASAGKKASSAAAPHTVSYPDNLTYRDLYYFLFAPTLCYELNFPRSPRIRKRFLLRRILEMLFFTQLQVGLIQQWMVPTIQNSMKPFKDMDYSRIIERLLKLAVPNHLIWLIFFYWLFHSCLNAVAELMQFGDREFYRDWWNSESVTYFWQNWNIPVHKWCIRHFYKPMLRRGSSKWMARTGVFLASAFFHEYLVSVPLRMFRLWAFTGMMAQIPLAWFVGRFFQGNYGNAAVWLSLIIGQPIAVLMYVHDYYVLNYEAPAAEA
Method: Human DGAT1 was expressed in Sf9 insect cells using a baculovirus expression system. Microsomes were prepared and used as enzyme for in vitro inhibition testing in either of two formats measuring production of coenzyme A or tridecanoylglycerol product, respectively. All steps were performed at 21-23° C. All data for DGAT1 inhibition by test compounds were collected under conditions where product formation was linear with reaction time.
An equal volume (10 uL) of 3× enzyme in buffer was added and the components incubated for 30 minutes pre-reaction incubation to allow enzyme and test compounds to attain binding equilibrium. […] Some assays were performed with inclusion of didecanoylglycerol in the pre-reaction incubation of test compound and enzyme. DGAT reactions (30 uL) were initiated upon addition of 10 uL of 3× substrate solution. Final reaction conditions consisted of 20 mM HEPES pH 7.5, 2 mM MgCl2, 1 mM CHAPS, 50 uM didecanoylglycerol, 3 uM decanoyl-CoA, 1 ug/mL microsomal protein, and 1% DMSO. Following a 60 minute reaction incubation, reactions were stopped and CoA product derivatized with 30 uL of buffer containing 10 uM {4-[4-(4-amino-7,7-dimethyl-7H-pyrimido[4,5-b][1,4]oxazin-6-yl)phenyl]cyclohexyl}acetic acid and 50 uM 7-diethylamino-3-(4′-maleimidylphenyl)-4-methylcoumarin (CPM). […] IC50s were fitted using GraphPad Prism to a sigmoidal dose response.

In order of rising pIC50:
1. CCC(CC)NC(=O)Nc1cnc(-c2ccc3c(c2)CCC(CC(=O)O)(CC(F)(F)F)C3=O)cn1 (stereo not drawn) [Example 219]  5.23
2. CC(C)(C(=O)O)C1CCc2cc(-c3ccc(NC(=O)Nc4cccc(C(F)(F)F)c4)cc3)ccc2C1=O (stereo not drawn) [Example 76, 2-methyl-2-{1-oxo-6-[4-({[3-(trifluoromethyl)phenyl]carbamoyl}amino)phenyl]-1,2,3,4-tetrahydronaphthalen-2-yl}propanoic acid]  6.95
3. COC1(CC(=O)O)CCc2cc(-c3ccc(NC(=O)Nc4ccccc4)cc3)ccc2C1=O (stereo not drawn) [Example 190, 2-(2-methoxy-1-oxo-6-{4-[(phenylcarbamoyl)amino]phenyl}-1,2,3,4-tetrahydronaphthalen-2-yl)acetic acid]  7.17
4. O=C(O)CC1(CO)CCc2cc(-c3ccc(NC(=O)Nc4cccc(Cl)c4)c(F)c3)ccc2C1=O (stereo not drawn) [Example 198, 2-(6-(4-(3-(3-Chlorophenyl)ureido)-3-fluorophenyl)-2-(hydroxymethyl)-1-oxo-1,2,3,4-tetrahydronaphthalen-2-yl)acetic acid]  7.26
5. CCC1(CC(=O)O)CCc2cc(-c3cnc(NC(=O)Nc4ccccc4)cn3)ccc2C1=O (stereo not drawn) [Example 154]  7.32
6. O=C(O)CC1(F)CCc2cc(-c3ccc(NC(=O)Nc4cccc(C(F)(F)F)c4)cc3)ccc2C1=O (stereo not drawn) [Example 182, 2-{2-fluoro-1-oxo-6-[4-({[3-(trifluoromethyl)phenyl]carbamoyl}amino)phenyl]-1,2,3,4-tetrahydronaphthalen-2-yl}acetic acid]  7.32
7. O=C(O)CC1(O)CCc2cc(-c3ccc(NC(=O)Nc4cccc(C(F)(F)F)c4)cc3)ccc2C1=O (stereo not drawn) [Example 185, 2-{2-hydroxy-1-oxo-6-[4-({[3-(trifluoromethyl)phenyl]carbamoyl}amino)phenyl]-1,2,3,4-tetrahydronaphthalen-2-yl}acetic acid]  7.49
8. CCC1(CC(=O)O)CCc2cc(-c3ccc(NC(=O)Nc4ccccc4)cc3Cl)ccc2C1=O (stereo not drawn) [Example 140]  7.50
9. O=C(O)CC1(CC(F)(F)F)CCc2cc(-c3cnc(NC(=O)NC4CCC4)cn3)ccc2C1=O (stereo not drawn) [Example 230]  7.56
10. CC1(CC(=O)O)CCc2cc(-c3ccc(NC(=O)Nc4cccc(C(F)(F)F)c4)cn3)ccc2C1=O (stereo not drawn) [Example 109]  7.85
11. CC1(CC(=O)O)CCc2cc(-c3ccc(NC(=O)Nc4cccc(Cl)c4)c(F)c3)ccc2C1=O (stereo not drawn) [Example 90]  7.92
12. CCC1(CC(=O)O)CCc2cc(-c3ccc(NC(=O)Nc4cccc(C(F)(F)F)c4)c(F)c3)ccc2C1=O (stereo not drawn) [Example 143]  7.95
13. CCC1(CC(=O)O)CCc2cc(-c3ccc(NC(=O)Nc4cccc(Cl)c4)cc3Cl)ccc2C1=O (stereo not drawn) [Example 139]  7.97
14. COC1(CC(=O)O)CCc2cc(-c3ccc(NC(=O)Nc4cccc(Cl)c4)cc3)ccc2C1=O (stereo not drawn) [Example 192]  7.97
15. CCC1(CC(=O)O)CCc2cc(-c3ccc(NC(=O)Nc4ccccc4)c(F)c3)ccc2C1=O (stereo not drawn) [Example 141]  8.03
16. O=C(O)CC1(CC(F)(F)F)CCc2cc(-c3ccc(NC(=O)Nc4ccccc4)cc3)ccc2C1O (stereo not drawn) [Example 202]  8.19
17. O=C(O)CC1(CC(F)(F)F)CCc2cc(-c3ccc(NC(=O)NC4CCCCC4)cc3)ccc2C1=O (stereo not drawn) [Example 226]  8.21
18. CCC1(CC(=O)O)CCc2cc(-c3ccc(NC(=O)Nc4cccc(Cl)c4)c(F)c3)ccc2C1=O (stereo not drawn) [Example 144]  8.24
19. COC1(CC(=O)O)CCc2cc(-c3ccc(NC(=O)Nc4cccc(Cl)c4)cc3)ccc2C1=O (stereo not drawn) [Example 229]  8.28
20. CC[C@@]1(CC(=O)O)CCc2cc(-c3ccc(NC(=O)Nc4cccc(Cl)c4)cn3)ccc2C1=O [Example 164]  8.35
21. O=C(O)CC1(CC(F)(F)F)CCc2cc(-c3ccc(NC(=O)Nc4cccc(Cl)c4)cc3)ccc2C1=O (stereo not drawn) [Example 205]  8.46
22. O=C(O)CC1(CC(F)(F)F)CCc2cc(-c3ccc(NC(=O)Nc4cc(Cl)cc(Cl)c4)cc3)ccc2C1=O (stereo not drawn) [Example 224]  8.55
23. COCC1(CC(=O)O)CCc2cc(-c3ccc(NC(=O)Nc4cccc(C(F)(F)F)c4)cc3)ccc2C1=O (stereo not drawn) [Example 197, 2-[2-(methoxymethyl)-1-oxo-6-[4-({[3-(trifluoromethyl)phenyl]carbamoyl}amino)phenyl]-1,2,3,4-tetrahydronaphthalen-2-yl]acetic acid]  8.64
24. O=C(O)CC1(CC(F)(F)F)CCc2cc(-c3cnc(NC(=O)Nc4ccc(F)c(F)c4)cn3)ccc2C1=O (stereo not drawn) [Example 215, 2-(6-(5-(3-(3,4-Difluorophenyl)ureido)pyrazin-2-yl)-1-oxo-2-(2,2,2-trifluoroethyl)-1,2,3,4-tetrahydronaphthalen-2-yl)acetic acid]  8.74
25. CCc1ccc(NC(=O)Nc2ccc(-c3ccc4c(c3)CCC(CC(=O)O)(CC(F)(F)F)C4=O)cc2)cc1 (stereo not drawn) [Example 225]  8.92
26. O=C(O)CC1(CC(F)(F)F)CCc2cc(-c3cnc(NC(=O)Nc4cccc(Cl)c4)cn3)ccc2C1=O (stereo not drawn) [Example 223]  9.15
27. CCc1ccc(NC(=O)Nc2cnc(-c3ccc4c(c3)CCC(CC(=O)O)(CC(F)(F)F)C4=O)cn2)cc1 (stereo not drawn) [Example 220]  9.52
